Patent publication US12410220B2, “Modulation of mammalian cell lineage by synthetic immodulins” (priority 2021, dated 2025)
Marks after values point to notes of the source that are not given here. Peptide text beside a SMILES is read from it.

What was measured:
[1] = Experiment 4D binding to FITC-labelled hyaluronic acid; details: biotinylated peptide 1 ug/well; 1 ug FITC-labelled hyaluronic acid, 90 minutes
Summary of the method: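 Biotinylated peptides (1 ug/well) bound to streptavidin plates for 60 min at room temperature, then 1 ug FITC-labelled heparin or hyaluronic acid in PBS added for 90 min at room temperature, in quadruplicate. After washes, fluorescence read at 488/525 nm and counts normalized to immX3 peptide binding = 100.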

RXR-gamma = target: T1, RXR-gamma (Homo sapiens, UniProt P48443); test: Experiment 4B binding to full length RXR-gamma; details: 400 ng/well protein; 800 ng/well SA488-labelled peptide, 2 hours
T1 construct: 400 ng/well full length RXR-alpha, RXR-beta, RXR-gamma or PPAR-gamma; purchased Abcam, Cambridge, MA
T1 sequence (P48443 1-463): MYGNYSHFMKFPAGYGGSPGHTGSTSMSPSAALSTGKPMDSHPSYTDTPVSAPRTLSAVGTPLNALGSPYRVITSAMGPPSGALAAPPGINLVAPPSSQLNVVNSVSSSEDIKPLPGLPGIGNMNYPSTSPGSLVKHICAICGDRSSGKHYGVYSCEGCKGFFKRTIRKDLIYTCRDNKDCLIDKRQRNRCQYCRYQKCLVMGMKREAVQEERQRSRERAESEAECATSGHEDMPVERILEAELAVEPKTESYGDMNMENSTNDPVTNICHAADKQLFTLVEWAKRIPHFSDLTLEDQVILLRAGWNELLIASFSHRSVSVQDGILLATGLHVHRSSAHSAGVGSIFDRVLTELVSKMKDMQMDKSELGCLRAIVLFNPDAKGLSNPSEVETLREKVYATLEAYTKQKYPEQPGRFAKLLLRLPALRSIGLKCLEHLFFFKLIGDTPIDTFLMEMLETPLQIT
Procedure: (§1) Experiment 4B. Binding of immodulin peptides to RXR isoforms and domains. 100 ng/well recombinant human RXRa-DBD or RXRa-LBD, or 400 ng/well full length RXR-alpha, RXR-beta, RXR-gamma or PPAR-gamma (Abcam, Cambridge, MA) was adsorbed to wells of a 96-well plate for 60 minutes at room temperature, then blocked with 200 uL 1% BSA in PBS buffer overnight. The plate was washed with PBS and 800 ng/well Streptavidin-Alexa 488 conjugate (SA488)-labelled peptide was added. The plate was incubated for 2 hours at room temperature, washed and counted in a fluorometer (excitation/emission 485/525 nm). Significant binding above background is also shown (**p<0.05). […] When tested against domains of RXR-alpha, these peptides bind the DNA-binding domain (DBD) better than the ligand-binding domain (LBD).

[2] = tested on: HFF-1 human fibroblast cell line; test: Collagen-1 ELISA in HFF-1 dermal fibroblasts; assay type: cell-based; details: peptide 2 uM, 72 hour incubation
Procedure: Immodulin peptides have potential untility in the field of cosmetics. HFF-1 human fibroblast cell line was obtained from the American Type Culture Collection (ATCC). Cells were grown in a T-75 flask in DMEM Medium containing 10% fetal bovine serum and penicillin-streptomycin at 37° C. in a humidified, 5% CO2 incubator. Cells (100 µl, 2,000 cells/well) were plated in a 96-well plate and incubated overnight at 37° C. in a humidified, 5% CO2 incubator. Next day, 10 µl/well of compounds were added (quadruplicate wells). After 72 hour incubation with the compound, supernatants were collected for Collagen-1 ELISA assay and cell viability was measured in a luminometer after the addition of 100 IL/well CellTiterGlo reagent (Promega Inc, Madison, WI) as recommended by the manufacturer. Collagen stimulating activity of immodulin peptides in HFF-1 dermal fibroblasts: Peptides were added to cells at 2 uM. COL1 immunoreactivity was measured in the supernatants of cultured cells by ELISA using a rabbit monoclonal anti-COL1 primary antibody (Abcam, Cambridge, MA). Control (buffer) value of immunoreactivity was set to 100.

RXR-alpha LBD = target: T2, RXR-alpha LBD (Homo sapiens, UniProt P19793); test: Experiment 4B binding to RXR-alpha LBD; details: 100 ng/well protein; 800 ng/well SA488-labelled peptide, 2 hours
T2 construct: purchased Abcam, Cambridge, MA
T2 sequence (P19793 227-458 limits assumed): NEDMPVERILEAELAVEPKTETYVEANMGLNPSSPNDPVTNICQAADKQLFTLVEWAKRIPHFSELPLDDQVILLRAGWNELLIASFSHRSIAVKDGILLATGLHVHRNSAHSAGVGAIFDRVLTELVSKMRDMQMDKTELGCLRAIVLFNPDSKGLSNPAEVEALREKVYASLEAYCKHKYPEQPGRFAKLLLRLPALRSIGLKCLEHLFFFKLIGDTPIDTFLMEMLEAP
Procedure: as §1

PPAR-gamma = target: T3, PPAR-gamma (Homo sapiens, UniProt P37231); test: Experiment 4B binding to full length PPAR-gamma; details: 400 ng/well protein; 800 ng/well SA488-labelled peptide, 2 hours
T3 construct: 400 ng/well full length RXR-alpha, RXR-beta, RXR-gamma or PPAR-gamma; purchased Abcam, Cambridge, MA
T3 sequence (P37231 1-505): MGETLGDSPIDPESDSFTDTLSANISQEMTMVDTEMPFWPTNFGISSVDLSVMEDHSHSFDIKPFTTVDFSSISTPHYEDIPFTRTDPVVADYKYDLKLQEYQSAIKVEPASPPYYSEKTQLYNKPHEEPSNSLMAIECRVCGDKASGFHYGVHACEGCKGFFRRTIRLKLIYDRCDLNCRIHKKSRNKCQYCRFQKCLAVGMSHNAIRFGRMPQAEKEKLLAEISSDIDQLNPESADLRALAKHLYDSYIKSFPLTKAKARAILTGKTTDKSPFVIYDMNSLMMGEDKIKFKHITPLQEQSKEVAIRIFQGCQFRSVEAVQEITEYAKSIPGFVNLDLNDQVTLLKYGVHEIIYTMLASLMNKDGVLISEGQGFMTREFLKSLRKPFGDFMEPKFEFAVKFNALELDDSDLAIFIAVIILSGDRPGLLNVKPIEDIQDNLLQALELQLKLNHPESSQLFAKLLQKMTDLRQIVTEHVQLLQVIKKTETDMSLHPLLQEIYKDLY
Procedure: as §1

RXR-alpha DBD = target: T4, RXR-alpha DBD (Homo sapiens, UniProt P19793); test: Experiment 4B binding to RXR-alpha DBD; details: 100 ng/well protein; 800 ng/well SA488-labelled peptide, 2 hours
T4 construct: purchased Abcam, Cambridge, MA
T4 sequence (P19793 111-228): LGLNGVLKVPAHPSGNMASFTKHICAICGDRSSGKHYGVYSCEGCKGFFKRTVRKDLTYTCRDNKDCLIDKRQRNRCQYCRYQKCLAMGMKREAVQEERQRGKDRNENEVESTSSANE
Procedure: as §1

Hyaluronate binding, counts normalized for immX3 peptide binding=100 [1] | Binding to RXR-gamma relative to imm3 binding (=100) (RXR-gamma) | Binding to RXR-alpha LBD relative to imm3 binding (=100) (RXR-alpha LBD) | Binding to PPAR-gamma relative to imm3 binding (=100) (PPAR-gamma) | Binding to RXR-alpha DBD relative to imm3 binding (=100) (RXR-alpha DBD) | Compound | COL1 immunoreactivity in supernatants, control (buffer) set to 100 [2]
60.0 ± 8.6** | 90.0 ± 19.6** | 1.8 ± 1.9 | 1.6 ± 0.4 | 22.7 ± 3.1** | CC[C@H](C)[C@H](NC(=O)CNC(=O)[C@H](CCCNC(=N)N)NC(=O)[C@H](CCCCN)NC(=O)[C@H](CCCNC(=N)N)NC(=O)CNC(=O)[C@H](CCCNC(=N)N)NC(=O)[C@H](CO)NC(=O)[C@@H]1CCCN1C(=O)[C@H](CCCCN)NC(=O)[C@H](CS)NC(=O)[C@H](CCC(N)=O)NC(=O)[C@H](CCCCN)NC(=O)[C@H](CCCNC(=N)N)NC(=O)[C@H](CCCCN)NC(=O)[C@H](Cc1ccc(O)cc1)NC(=O)[C@H](Cc1ccccc1)NC(=O)CNC(=O)[C@H](CCCCN)NC(=O)[C@@H](N)CCCNC(=N)N)C(=O)N[C@@H](CS)C(=O)N[C@@H](Cc1c[nH]c2ccccc12)C(=O)O [imm5] (H-RKGFYKRKQCKPSRGRKRGICW-OH; N-terminus and C-terminus assumed) | 93
14.6 ± 22.6 | 3.6 ± 7.0 | 3.0 ± 1.3 | 0.1 ± 0.0 | 3.2 ± 2.0 | CC(C)C[C@H](NC(=O)[C@H](C)NC(=O)[C@@H]1CCCN1C(=O)[C@H](Cc1c[nH]cn1)NC(=O)[C@H](CS)NC(=O)[C@H](CCC(N)=O)NC(=O)[C@H](CCCCN)NC(=O)[C@@H]1CCCN1C(=O)[C@H](Cc1c[nH]cn1)NC(=O)[C@H](Cc1ccccc1)NC(=O)[C@H](CC(N)=O)NC(=O)CNC(=O)[C@H](CC(N)=O)NC(=O)[C@@H](N)CCCNC(=N)N)C(=O)N[C@@H](CC(=O)O)C(=O)NCC(=O)N[C@@H](CCC(N)=O)C(=O)N[C@@H](CCCNC(=N)N)C(=O)NCC(=O)N[C@@H](CCCCN)C(=O)N[C@@H](CS)C(=O)N[C@@H](Cc1c[nH]c2ccccc12)C(=O)O [imm4] (H-RNGNFHPKQCHPALDGQRGKCW-OH; N-terminus and C-terminus assumed) | 105
44.9 ± 14.1** | 42.0 ± 11.6** | 1.6 ± 1.4 | 6.8 ± 2.0 | 22.9 ± 2.1** | N=C(N)NCCC[C@H](NC(=O)[C@H](CCCNC(=N)N)NC(=O)[C@H](CCC(N)=O)NC(=O)CNC(=O)[C@H](CCC(N)=O)NC(=O)[C@H](CO)NC(=O)[C@H](CO)NC(=O)[C@H](CCCNC(=N)N)NC(=O)[C@H](CS)NC(=O)[C@H](CCC(N)=O)NC(=O)[C@H](CCCNC(=N)N)NC(=O)[C@H](CCCCN)NC(=O)[C@H](CCCNC(=N)N)NC(=O)[C@H](Cc1ccc(O)cc1)NC(=O)[C@H](Cc1ccccc1)NC(=O)CNC(=O)[C@H](CCCNC(=N)N)NC(=O)[C@@H](N)Cc1c[nH]cn1)C(=O)NCC(=O)N1CCC[C@H]1C(=O)N[C@@H](CS)C(=O)N[C@@H](Cc1c[nH]c2ccccc12)C(=O)O [imm6] (H-HRGFYRKRQCRSSQGQRRGPCW-OH; N-terminus and C-terminus assumed) | 112
57.2 ± 5.7** | 100.0 ± 16.5** | 0.6 ± 1.5 | 2.1 ± 1.4 | 22.2 ± 2.4** | N=C(N)NCCC[C@H](NC(=O)CNC(=O)[C@H](CCCCN)NC(=O)[C@H](CO)NC(=O)[C@@H]1CCCN1C(=O)[C@H](CCCNC(=N)N)NC(=O)[C@H](CS)NC(=O)[C@H](CCC(N)=O)NC(=O)[C@H](CCCCN)NC(=O)[C@H](CCCCN)NC(=O)[C@H](CCCCN)NC(=O)[C@H](Cc1ccc(O)cc1)NC(=O)[C@H](Cc1ccccc1)NC(=O)CNC(=O)[C@H](CCCCN)NC(=O)[C@@H](N)CCCCN)C(=O)N[C@@H](CCCCN)C(=O)N[C@@H](CCCNC(=N)N)C(=O)NCC(=O)N[C@@H](Cc1ccccc1)C(=O)N[C@@H](CS)C(=O)N[C@@H](Cc1c[nH]c2ccccc12)C(=O)O [imm3] (H-KKGFYKKKQCRPSKGRKRGFCW-OH; N-terminus and C-terminus assumed) | 101
